Patent publication US10975037B2 (priority 2018, dated 2021)
Where a name gives a salt, the structure may show the parent alone. Read-outs that look alike come from different tables or passages of the source.

Biological target: full-length human RORγt (Homo sapiens (Human), UniProt P51449)
Test: RORγt (full-length human) reporter assay, conditions A or B, HEK293T cells
Type: cell-based
Conditions: HEK-293T, read-out: RORγt (FL) Reporter Assay A or B, % inhibition; for inhibition at 2 µM: 2 μM compound concentration; for inhibition at 1 µM: 1 μM compound concentration (footnote ***)
Experimental: RORγt (Full-Length Human) Reporter Assay:
(§1) HEK293T cells were plated at 35,000 per well in 96-well plate in medium of DMEM with 10% FBS. […] After overnight (16 to 20 hours) incubation, media were removed and cells were lysed with 50 L Glo Lysis Buffer (Promega) for 10-15 minutes followed by 10 minute incubation with 50 μL Dual Glo reagent (Promega) at room temperature. Firefly luciferase luminescence was measured using a BMG Pherastar plate reader. To each well, 50 μL Stop and Glo reagent was added and incubated for 10 minutes at room temperature. Renilla luminescence was measured using a BMG Pherastar plate reader. To calculate the effect of compounds on RORγt activity, firefly values were normalized against values of DMSO only and values of reference compound at saturating concentration, then further normalized against Renilla signals. IC50s were generated by plotting final Renilla normalized data against compound concentration and percent inhibition was calculated against DMSO control.
as §1, with “at 8750 cells” for “at 35,000”, “in 384-well” for “in 96-well”, “with 20” for “with 50”, “well, 20” for “well, 50”

[1] = 3 μM compound concentration (footnote *)

full-length human RORγt, sequence (P51449 other isoform, or with tags, fused parts or gaps): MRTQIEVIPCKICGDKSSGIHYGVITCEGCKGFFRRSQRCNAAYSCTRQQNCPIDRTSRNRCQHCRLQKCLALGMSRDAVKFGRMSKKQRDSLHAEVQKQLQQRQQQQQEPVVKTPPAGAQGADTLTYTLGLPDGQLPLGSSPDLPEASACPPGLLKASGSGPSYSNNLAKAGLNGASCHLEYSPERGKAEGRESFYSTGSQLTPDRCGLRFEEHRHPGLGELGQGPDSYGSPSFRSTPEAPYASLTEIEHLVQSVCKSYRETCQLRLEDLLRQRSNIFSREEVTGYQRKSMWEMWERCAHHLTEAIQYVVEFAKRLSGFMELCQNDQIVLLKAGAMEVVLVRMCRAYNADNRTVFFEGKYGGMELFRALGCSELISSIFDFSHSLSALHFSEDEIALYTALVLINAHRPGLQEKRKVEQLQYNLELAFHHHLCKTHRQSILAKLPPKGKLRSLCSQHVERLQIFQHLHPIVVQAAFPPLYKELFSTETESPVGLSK

An inhibition at 3 µM [1] of 15% was found for `CCn1nc(C(=O)NC[C@]2(N)CC[C@H](S(C)(=O)=O)CC2)c(Cl)c1-c1ccc(CC(C)(C)C(F)(F)F)cc1OC(F)F` [Example 20, N-(((1r*,4r*)-1-Amino-4-(methylsulfonyl)cyclohexyl)methyl)-4-chloro-5-(2-(difluoromethoxy)-4-(3,3,3-trifluoro-2,2-dimethylpropyl)phenyl)-1-ethyl-1H-pyrazole-3-carboxamide 2,2,2-trifluoroacetic Acid Salt] in this work.
An inhibition at 2 µM of 82% was found for `CCn1nc(C(=O)NC[C@H]2CC[C@H](S(C)(=O)=O)CC2)c(Cl)c1-c1ccc(OCC2CC2(F)F)cc1OC` (some centres unmarked) [Example 209, 4-Chloro-5-(4-((2,2-difluorocyclopropyl)methoxy)-2-methoxyphenyl)-1-ethyl-N-(((1r,4r)-4-(methylsulfonyl)cyclohexyl)methyl)-1H-pyrazole-3-carboxamide] in this work.
An inhibition at 1 µM of 95% was found for `CCn1nc(C(=O)NC[C@]2(O)CC[C@@H](S(C)(=O)=O)CC2)c(Cl)c1-c1ccc([C@@H](O)C2(C(F)(F)F)CC2)cc1OC(F)F` (single isomer, unassigned) [Example 111, 4-Chloro-5-(2-(difluoromethoxy)-4-((R*)-hydroxy(1-(trifluoromethyl)cyclopropyl)methyl)phenyl)-1-ethyl-N-(((1s,4S)-1-hydroxy-4-(methylsulfonyl)cyclohexyl)methyl)-1H-pyrazole-3-carboxamide] in this work.
An inhibition at 3 µM of 104% was found for `CCn1nc(C(=O)NC[C@]2(O)CC[C@@H](S(C)(=O)=O)CC2)c(Cl)c1-c1ccc([C@H](O)C(C)(C)C(F)(F)F)cc1OC(F)F` (single isomer, unassigned) [Example 107, 4-Chloro-5-(2-(difluoromethoxy)-4-((S*)-3,3,3-trifluoro-1-hydroxy-2,2-dimethylpropyl)phenyl)-1-ethyl-N-(((1s,4R)-1-hydroxy-4-(methylsulfonyl)cyclohexyl)methyl)-1H-pyrazole-3-carboxamide] in this work.
An inhibition at 2 µM of 101% was found for `CCn1nc(C(=O)NC[C@]2(O)CC[C@@H](S(C)(=O)=O)CC2)c(Cl)c1-c1ccc(C[C@@H](C)C(F)(F)F)cc1OC` [Example 36, 4-Chloro-1-ethyl-N-(((1s,4S)-1-hydroxy-4-(methylsulfonyl)cyclohexyl)methyl)-5-(2-methoxy-4-((R)-3,3,3-trifluoro-2-methylpropyl)phenyl)-1H-pyrazole-3-carboxamide] in this work.
An inhibition at 3 µM [1] of 107% was found for `CCn1nc(C(=O)NC[C@]2(O)CC[C@@H](S(C)(=O)=O)CC2)c(Cl)c1-c1ccc([C@](C)(O)CCC(F)(F)F)cc1OC(F)F` (relative stereo) [Example 103, 4-Chloro-5-(2-(difluoromethoxy)-4-((R*)-5-trifluoro-2-hydroxypentan-2-yl)phenyl)-1-ethyl-N-(((1s,4S)-1-hydroxy-4-(methylsulfonyl)cyclohexyl)methyl)-1H-pyrazole-3-carboxamide] in this work.
An inhibition at 1 µM of 115% was found for `CCn1nc(C(=O)NC[C@]2(O)CC[C@@H](S(C)(=O)=O)CC2)c(Cl)c1-c1ccc(C(O)C(C)(C)C(F)(F)F)cc1OC(F)F` (some centres unmarked) [Example 106, 4-Chloro-5-(2-(difluoromethoxy)-4-(3,3,3-trifluoro-1-hydroxy-2,2-dimethylpropyl)phenyl)-1-ethyl-N-(((1s,4s)-1-hydroxy-4-(methylsulfonyl)cyclohexyl)methyl)-1H-pyrazole-3-carboxamide] in this work.
An inhibition at 2 µM of 66% was found for `CCn1nc(C(=O)NC[C@H]2CC[C@H](S(C)(=O)=O)CC2)c(Cl)c1-c1ccc(OCC2CC2(F)F)cc1OC` (single isomer, unassigned) [Example 211, 4-Chloro-5-(4-(((R*)-2,2-difluorocyclopropyl)methoxy)-2-methoxyphenyl)-1-ethyl-N-(((1r,4R)-4-(methylsulfonyl)cyclohexyl)methyl)-1H-pyrazole-3-carboxamide] in this work.
